From US11293911B2, “Multi-phase liquid composition, device for measuring permeability of drugs, and method for measuring permeability of drugs” (priority 2017, dated 2022) come the findings set out here.

Data set [1] is described as follows: in vitro. It is filed as in vitro ADME. The following applies: for Papp: not told, read-out: Permeability according to examples. On the procedure: A DOPC lipid dissolved in chloroform and commercially available was collected in a glass vial, and chloroform was removed by blowing nitrogen.
The lipid film was left in the glass vial, to which the organic phase (1:1 (v/v) mixture of squalane and silicone oil (AR20)) was added, and then sonication was performed for 10-15 minutes to uniformly disperse the lipid in the oil.
Finally, an oil solution in which the lipid was dissolved (DOPC concentration: 4 mg/ml) was obtained.
Then, distilled water was added to a UV cuvette and the prepared lipid solution was added thereon.
At this time, the process of producing the lipid bilayer was performed by adding a small amount of fluorescently labeled lipid and observing it through a fluorescence microscope.
At this time, a magnetic stirring bar is placed under the UV cuvette and the lower water layer is continuously stirred during the measurement. This makes it unnecessary to consider the time when the drug passes through the lipid bilayer and diffuses to the area irradiated with UV.
The R2 value was calculated in order to determine how well the concentration and absorbance correlate at each wavelength, and the wavelength at which this value exceeds 0.99 was irradiated in the experiment.
More specifically, in FIG. 3, CA(t) means the concentration of an acceptor solution over time (where the first aqueous phase is located under the cuvette, where the drug reaches through the first lipid bilayer) and Ceq means the equilibrium concentration of the acceptor solution droplet (serving as a donor solution to provide a drug), and the acceptor solution, and is calculated by the following General Formula 1. Ceq=CD(0)VD/(VD+VA) [General Formula 1]
In General Formula 1, VA and VD are respectively the volume of a first aqueous phase (acceptor) and the volume of a second aqueous phase (donor, droplet), and CD(0) represents the drug concentration of the initial aqueous solution droplet.

Data set [2] can be described thus: in vitro. The conditions noted are these: PAMPA.
Protocol: Subsequently, the drug concentration of the portion corresponding to the cell membrane inside (acceptor) is obtained by HPLC or UV spectroscopy, from which the membrane permeability of the corresponding drugs is calculated.
The mark [3] stands for this setting: DOPC lipid bilayer, organic phase 1:1 (v/v) squalane and silicone oil (AR20), 1 μl donor droplet, real-time UV absorbance of stirred acceptor water layer.

Each structure is given as a SMILES string. Where two headings read alike, the source gives them in different places.

On to `CC(=O)Nc1ccc(O)cc1` [Acetaminophen], for which the Papp was found to be 1130 nm/s in data set [1] (setting [3]) and 35 nm/s in data set [2].
`Cc1cc(=O)n(-c2ccccc2)n1C` [Antipyrine]: the Papp in data set [1] was 2000 nm/s.
As to `Cn1c(=O)c2c(ncn2C)n(C)c1=O` [Caffeine], the Papp in data set [1] (setting [3]) was found to be 2480 nm/s.
In the case of `CN/C(=N/CCSCc1nc[nH]c1C)NC#N` [Cimetidine], in data set [1] (DOPC lipid bilayer, method of the example), the “Permeability to the lipid bilayer (in words)” value is reported as “very low permeability”. Moreover, the Papp in data set [1] (setting [3]) worked out at 72 nm/s.
